Experiments:
LBT-PglBCj-Δ1-11 = LBT-PglBCj-Δ1-11 (Campylobacter jejuni subsp. jejuni serotype O:2, UniProt Q0P9C8); format: binding
LBT-PglBCl-Δ1-12 [1] = molecular target: T1, LBT-PglBCl-Δ1-12 (Campylobacter lari, UniProt B9KDD4); format: binding; conditions: Tb^3+ relative to LBT-PglB
LBT-PglBCl-Δ1-12 [2] = molecular target: T1, LBT-PglBCl-Δ1-12; format: binding; conditions: read-out: KD (glycan substrate); LRET titration, UndPPT-Fl from 0.014 to 5 μM, luminescence at 544 nm
PglBCj = format: biochemical, Campylobacter jejuni

Compound | Tb^3+ saturation stoichiometry (LBT-PglBCj-Δ1-11; Tb^3+ relative to LBT-PglB) | Kd (LBT-PglBCj-Δ1-11; read-out: Tb^3+ KD, estimated, sensitized luminescence at 544 nm) [nM] | Tb^3+ saturation stoichiometry (LBT-PglBCl-Δ1-12 [1]) | Kd (LBT-PglBCl-Δ1-12 [2]) [nM] | tolerated as glycosyl donor substrate (PglBCj)
[Tb+3] [Tb^3+, terbium] | saturated at one molar equivalent | 2300 | saturated at one molar equivalent | – | –
Und-PP-diNAcBac-GalNAc-GalNAz conjugated to acetylene-545 fluorophore [UndPPT-Fl] | – | – | – | 330 ± 70 | tolerates

— publication PMC5480290 (Journal of the American Chemical Society, 2016)
